In US20240252509A1, “SELF-PRESERVING COMPOSITIONS AND MULTI-USE DISPENSERS FOR ADMINISTERING ALPHA-1062” (priority 2021, published 2024):

What was measured:
[1] = salts described in WO 2014/016430; cited from earlier work
[2] = test system: Aspergillus brasiliensis (ATCC No. 16404); assay: USP 51 Preservative Challenge Test, A. brasiliensis; format: cell-based; conditions: A. brasiliensis ATCC 16404, 82 mg/mL solution in water
Protocol: (§1) In order to assess the anti-microbial properties of Alpha-1062, the USP (US Pharmacopeia) Chapter 51 Preservative Challenge Test (USP 51) was employed. The USP 51 is a common method used to gauge preservative effectiveness. Much like a Preservative Challenge Screen, it is used to evaluate the effect of preservatives in cosmetics, personal care products, and drug products. Preservatives are typically antimicrobial ingredients that are added to aqueous product formulations to help maintain the safety of the product by inhibiting the growth and reducing the number of microbial contaminants.
(§2) In the context of the present invention, Alpha-1062 (in the form of the gluconate salt) was assessed in place of (as) a preservative. No additional preservative was added to the Alpha-1062 gluconate preparation, rather an anti-microbial effect of the agent itself (Alpha-1062) was assessed. Alpha-1062 is therefore the anti-microbial agent in the assay and experiments described below.
(§3) Cultures of the following microorganisms were applied, as per standard guidelines for USP 51: • Candida albicans (ATCC No. 10231), • Aspergillus brasiliensis (ATCC No. 16404), • Escherichia coli (ATCC No. 8739), • Pseudomonas aeruginosa (ATCC No. 9027), and • Staphylococcus aureus (ATCC No. 6538). […]
(§4) The inoculated containers were incubated at 22.5±2.5° C. and each container was sampled at the appropriate intervals, as specified in Table 3. Any changes observed in the appearance of the culture was recorded at these intervals. By using the plate-count procedure, the number of CFU present in each test preparation was determined for the applicable intervals.
(§5) An inactivator (neutralizer) of the specific antimicrobial was incorporated in the plate count or in the appropriate dilution prepared for plating. These conditions were determined in the validation study for that sample based upon the conditions of media and microbial recovery incubation times listed in Table 2. Using the calculated concentrations of CFU per mL present at the start of the test, the change in log 10 values of the concentration of CFU per mL for each microorganism was calculated at the applicable test intervals, and the changes were expressed in terms of log reductions.
(§6) The requirements for antimicrobial effectiveness are met if the criteria specified under Table 3 are met. No increase is defined as not more than 0.5 log 10 unit higher than the previous value measured. […]
(§7) The USP Criteria for Category 2 were employed in order to determine the presence of an anti-microbial effect. […] For yeast and molds, an antimicrobial effect is evident when no increase from the initial calculated count is determined at 14 and 28 days.

[3] = test system: Pseudomonas aeruginosa (ATCC No. 9027); assay: USP 51 Preservative Challenge Test, P. aeruginosa; format: cell-based; conditions: P. aeruginosa ATCC 9027, 82 mg/mL solution in water
Protocol: as §1, §2, §3, §4, §5, §6, §7

[4] = test system: all 5 organisms tested in the USP 51; assay: USP 51 test, overall assessment against Category 2 criteria; format: cell-based; conditions: 82 mg/mL solution in water, USP Criteria for Category 2
Protocol: as §1
In the context of the present invention, Alpha-1062 (in the form of the gluconate salt) was assessed in place of (as) a preservative. No additional preservative was added to the Alpha-1062 gluconate preparation, rather an anti-microbial effect of the agent itself (Alpha-1062) was assessed. […]
as §6, §7

[5] = test system: Staphylococcus aureus (ATCC No. 6538); assay: USP 51 Preservative Challenge Test, S. aureus; format: cell-based; conditions: S. aureus ATCC 6538, 82 mg/mL solution in water
Protocol: as §1, §2, §3, §4, §5, §6, §7

[6] = test system: Candida albicans (ATCC No. 10231); assay: USP 51 Preservative Challenge Test, C. albicans; format: cell-based; conditions: C. albicans ATCC 10231, 82 mg/mL solution in water
Protocol: as §1, §2, §3, §4, §5, §6, §7

[7] = test system: Escherichia coli (ATCC No. 8739); assay: USP 51 Preservative Challenge Test, E. coli; format: cell-based; conditions: E. coli ATCC 8739, 82 mg/mL solution in water
Protocol: as §1, §2, §3, §4, §5, §6, §7

[8] = Day 14, log10 reduction from initial count
[9] = Day 28, log10 reduction from initial count

## COc1ccc2c3c1O[C@H]1C[C@@H](OC(=O)c4ccccc4)C=C[C@@]31CCN(C)C2 [Alpha-1062 Gluconate]
[1]
  solubility in water: above 10 % weight per volume (w/v)
[2]; Day 14, initial 2.2 × 10^5 CFU/mL
  CFU/mL Day 14: 1.6 × 10^2 CFU/mL
[2]; [8]
  Log Reduction Day 14: 3.1
[2]; Day 28, initial 2.2 × 10^5 CFU/mL
  CFU/mL Day 28: 1.5 × 10^2 CFU/mL
[2]; [9]
  Log Reduction Day 28: 3.1
[3]; Day 14, initial 2.9 × 10^5 CFU/mL
  CFU/mL Day 14: <10 CFU/mL
[3]; [8]
  Log Reduction Day 14: 4.5
[3]; Day 28, initial 2.9 × 10^5 CFU/mL
  CFU/mL Day 28: <10 CFU/mL
[3]; [9]
  Log Reduction Day 28: 4.5
[4]
  anti-microbial effect in the USP 51: strong anti-microbial effect
[5]; Day 14, initial 4.0 × 10^5 CFU/mL
  CFU/mL Day 14: <10 CFU/mL
[5]; [8]
  Log Reduction Day 14: 4.6
[5]; Day 28, initial 4.0 × 10^5 CFU/mL
  CFU/mL Day 28: <10 CFU/mL
[5]; [9]
  Log Reduction Day 28: 4.6
[6]; Day 14, initial 6.7 × 10^5 CFU/mL
  CFU/mL Day 14: <10 CFU/mL
[6]; [8]
  Log Reduction Day 14: 4.8
[6]; Day 28, initial 6.7 × 10^5 CFU/mL
  CFU/mL Day 28: <10 CFU/mL
[6]; [9]
  Log Reduction Day 28: 4.8
[7]; Day 14, 22.5±2.5° C., initial 9.1 × 10^5 CFU/mL
  CFU/mL Day 14: <10 CFU/mL
[7]; [8]
  Log Reduction Day 14: 5.0
[7]; Day 28, initial 9.1 × 10^5 CFU/mL
  CFU/mL Day 28: <10 CFU/mL
[7]; [9]
  Log Reduction Day 28: 5.0
